Results: ChEMBL document CHEMBL1201862, “PubChem BioAssay data set” (2004)
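Values below derive from 48-hour exposures of cells grown in 96-well plates, with endpoints linearly interpolated between the two concentrations bracketing the appropriate inhibition level. GI50 = concentration required for 50% inhibition of growth.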 Activity calls are given as the source filed them. No stated cut-off is given here; in the data, active = GI50 up to about 1.1 µM and inactive = higher.

Key:
Assay in all cases: NCI-60 cell line screen, 48 h
MDA-MB-231 = tested on: MDA-MB-231
UACC-62 = tested on: UACC-62
SK-MEL-5 = tested on: SK-MEL-5
SNB-75 = tested on: SNB-75
A549 = tested on: A549
SK-MEL-28 = tested on: SK-MEL-28
SF-268 = tested on: SF-268
HOP-62 = tested on: HOP-62
CAKI-1 = tested on: CAKI-1
HCC 2998 = tested on: HCC 2998
LOX IMVI = tested on: LOX IMVI
MDA-N = tested on: MDA-N
A498 = tested on: A498
OVCAR-5 = tested on: OVCAR-5
SK-MEL-2 = tested on: SK-MEL-2
BT-549 = tested on: BT-549
SK-OV-3 = tested on: SK-OV-3
SR = tested on: SR
OVCAR-4 = tested on: OVCAR-4
NCI/ADR-RES = tested on: NCI/ADR-RES

Measured: GI50

Cc1c(CNc2ccc(Cl)c(C(=O)NC(CC(=O)O)C(=O)O)c2)ccc2nc(N)nc(N)c12 (stereo not given)
inactive: MDA-MB-231 > 100 µM | SNB-75 > 32.3 µM | A549 1.33 µM | SK-MEL-28 10.1 µM | A498 1.52 µM | OVCAR-5 1.4 µM | SK-MEL-2 > 100 µM | BT-549 33.3 µM | SK-OV-3 33.7 µM
active: UACC-62 0.0501 µM | SK-MEL-5 0.148 µM | SF-268 0.209 µM | HOP-62 0.256 µM | CAKI-1 < 0.0311 µM | HCC 2998 0.256 µM | LOX IMVI < 0.0118 µM | MDA-N < 0.01 µM

CC(C)S(=O)(=O)ON1C(=O)c2ccc(N(C)C)cc2C1=O
inactive: MDA-MB-231 6.17 µM | UACC-62 15.5 µM | SK-MEL-5 3.96 µM | SNB-75 19.6 µM | A549 25 µM | SK-MEL-28 21.4 µM | SR 2.38 µM | SF-268 24 µM | HOP-62 42.5 µM | OVCAR-4 17.7 µM | CAKI-1 5.35 µM | HCC 2998 13.3 µM | LOX IMVI 13.2 µM | MDA-N 4.01 µM | A498 > 43.7 µM | OVCAR-5 18.8 µM | SK-MEL-2 4.01 µM | SK-OV-3 > 50.7 µM | NCI/ADR-RES 5.4 µM

O=C(CNc1ccccc1Cl)Nn1c(-c2ccccc2)nc2ccccc2c1=O
inactive: MDA-MB-231 > 10 µM | UACC-62 > 10 µM | SK-MEL-5 10.2 µM | SNB-75 16.8 µM | A549 44.8 µM | SK-MEL-28 21.2 µM | SR 23.4 µM | SF-268 30.1 µM | HOP-62 27.9 µM | OVCAR-4 26.4 µM | HCC 2998 19.5 µM | LOX IMVI 14.7 µM | A498 49.8 µM | OVCAR-5 > 10 µM | BT-549 12.8 µM | SK-OV-3 38.1 µM

COC(=O)CSC1CC(=O)c2c(Cl)sc(Cl)c21 (stereo not given)
inactive: MDA-MB-231 > 100 µM | UACC-62 > 100 µM | SK-MEL-5 > 100 µM | SNB-75 > 100 µM | A549 > 100 µM | SK-MEL-28 > 100 µM | SR 66.2 µM | SF-268 > 100 µM | HOP-62 > 100 µM | OVCAR-4 > 100 µM | CAKI-1 > 100 µM | HCC 2998 > 100 µM | LOX IMVI > 100 µM | MDA-N > 100 µM | OVCAR-5 > 100 µM | SK-MEL-2 > 100 µM | BT-549 > 100 µM | SK-OV-3 > 100 µM

O=C(Nc1ccccc1)N(C1=NCC(CI)S1)c1ccc(F)c(F)c1 (stereo not given)
inactive: MDA-MB-231 24.8 µM | SK-MEL-5 17.3 µM | SNB-75 12.6 µM | A549 26.4 µM | SK-MEL-28 12.4 µM | SR 23.8 µM | SF-268 21.3 µM | HOP-62 > 100 µM | OVCAR-4 29.4 µM | CAKI-1 24.1 µM | HCC 2998 55.8 µM | LOX IMVI 15.2 µM | MDA-N 24.6 µM | A498 24.9 µM | OVCAR-5 > 100 µM | SK-MEL-2 23.9 µM | SK-OV-3 > 100 µM | NCI/ADR-RES 30.8 µM

COc1ccccc1NC(=S)Nc1cccc(C)n1
inactive: UACC-62 42.4 µM | SK-MEL-5 > 100 µM | A549 > 100 µM | SK-MEL-28 > 100 µM | SR > 100 µM | SF-268 18.4 µM | HOP-62 43.6 µM | OVCAR-4 > 100 µM | CAKI-1 88.5 µM | LOX IMVI > 100 µM | A498 > 100 µM | OVCAR-5 > 100 µM | SK-MEL-2 > 100 µM | BT-549 > 100 µM | SK-OV-3 > 100 µM | NCI/ADR-RES > 100 µM
active: SNB-75 1.07 µM

CCCCCC(=O)OC[n+]1ccc2c(C)c3[nH]c4ccc(OC)cc4c3c(C)c2c1
inactive: SK-MEL-5 1.57 µM | SK-MEL-2 1.61 µM
active: MDA-MB-231 0.244 µM | UACC-62 0.966 µM | SNB-75 1.11 µM | A549 0.284 µM | SK-MEL-28 0.766 µM | SR 0.0498 µM | SF-268 0.211 µM | HOP-62 0.586 µM | OVCAR-4 0.811 µM | CAKI-1 1.06 µM | HCC 2998 0.543 µM | LOX IMVI 0.224 µM | MDA-N 0.332 µM | A498 1.07 µM | OVCAR-5 0.556 µM | SK-OV-3 0.628 µM | NCI/ADR-RES 0.213 µM

CC(C)[Si](Oc1cc2c3c(ccc2c(O)c1[C@@H](C)CO[Si](C)(C)C(C)(C)C)C(C)(C)CCC3)(C(C)C)C(C)C
inactive: MDA-MB-231 > 100 µM | UACC-62 > 100 µM | SK-MEL-5 23.8 µM | SNB-75 69.8 µM | A549 > 100 µM | SK-MEL-28 > 100 µM | SR 51.5 µM | SF-268 > 100 µM | HOP-62 > 100 µM | OVCAR-4 > 100 µM | CAKI-1 > 100 µM | LOX IMVI 64.4 µM | MDA-N > 100 µM | A498 > 100 µM | OVCAR-5 > 100 µM | SK-MEL-2 > 100 µM | SK-OV-3 > 100 µM | NCI/ADR-RES > 100 µM

CCOCc1c(C)cc(C)c(C2C(C(=O)c3ccccc3)N3c4ccccc4C=CC3C2(C#N)C(=O)OCC)c1C (stereo not given)
inactive: UACC-62 31 µM | SK-MEL-5 14.8 µM | SK-MEL-28 64.6 µM | SR 82.8 µM | SF-268 53.8 µM | OVCAR-4 37 µM | CAKI-1 44 µM | HCC 2998 18.1 µM | LOX IMVI 35.9 µM | MDA-N 27.4 µM | A498 > 100 µM | OVCAR-5 64.9 µM | BT-549 28.1 µM | NCI/ADR-RES 33.7 µM

O=c1[nH]n(Cc2ccccn2)c2ccc([N+](=O)[O-])cc12
inactive: MDA-MB-231 > 100 µM | UACC-62 > 100 µM | SK-MEL-5 > 100 µM | SNB-75 > 100 µM | A549 > 100 µM | SK-MEL-28 > 100 µM | SR > 100 µM | SF-268 > 100 µM | HOP-62 > 100 µM | OVCAR-4 > 100 µM | CAKI-1 > 100 µM | HCC 2998 > 100 µM | LOX IMVI > 100 µM | MDA-N > 100 µM | A498 > 100 µM | OVCAR-5 > 100 µM | SK-MEL-2 > 100 µM | NCI/ADR-RES > 100 µM

COc1ccc(-c2cc(-c3cc4cc(Br)ccc4nc3Cl)c(C#N)c(N)n2)cc1
inactive: SK-MEL-5 > 12.5 µM | SNB-75 > 12.5 µM | A549 > 12.5 µM | SK-MEL-28 > 12.5 µM | SR 4.28 µM | SF-268 > 12.5 µM | HOP-62 > 12.5 µM | OVCAR-4 > 12.5 µM | CAKI-1 > 12.5 µM | LOX IMVI > 12.5 µM | MDA-N > 12.5 µM | OVCAR-5 10.7 µM | SK-MEL-2 > 12.5 µM | BT-549 > 12.5 µM | SK-OV-3 > 12.5 µM | NCI/ADR-RES > 12.5 µM
